# Measured values taken from US20240208963A1, “CRYSTALLINE MELANOCORTIN SUBTYPE-2 RECEPTOR (MC2R) ANTAGONIST” (Crinetics Pharmaceuticals, Inc., priority 2022, published 2024).
# Where a name gives a salt, the structure may show the parent alone. Read-outs that look alike come from different tables or passages of the source. Marks after values point to notes of the source that are not given here.
# How the values were obtained:
# [1] = Solubility in simulated fluids and water; assay type: physicochemical; conditions: 37° C.
# Method: Calibration samples for solubility in simulated fluids were prepared with freebase Compound I.
# Solubility in simulated fluids were studied with the mandelate and maleate solids. The simulated fluids FaSSIF (fasted-state intestinal), FaSSGF (fasted-state gastric), and FeSSIF (fed-state intestinal) were removed from the refrigerator, warmed to room temperature, and the pH of each was measured. Between 1.9 and 2.0 mg of each salt was weighed into four vials and 1 mL of each fluid was added, including water. Stir bars (10 mm) were added to the vials and the vials were stirred at 37° C. After 30 mi (mandelate samples) or 1 h (maleate samples), the pH of each solution was measured, then 400 μL of each was removed and syringe filtered with 0.45 µm syringe filters. Approximately 300 μL of the recovered filtrate was diluted 5× with diluent and injected for HPLC analysis. The remainder of the samples in the vials were allowed to stir overnight. After 24 h stirring at 37° C., samples were filtered and diluted as before, and injected for analysis.
# [2] = Dynamic vapor sorption (DVS); assay type: physicochemical
# Method: DVS was performed using a DVS Intrinsic 1. The sample (20-25 mg) was loaded into a sample pan, suspended from a microbalance and exposed to a humidified stream of nitrogen gas. The sample was held for a minimum of 5 min at each level and only progressed to the next humidity level if there was <0.002% change in weight between measurements (interval: 60 s) or 240 min had elapsed. The following program was used: • 1. Equilibration at 50% RH • 2. 50% to 2%. (50%, 40%, 30%, 20%, 10%, and 2%) • 3. 2% to 95% (2%, 10%, 20%, 30%, 40%, 50%, 60%, 70%, 80%, 90%, and 95%) • 4. 95% to 2% (95%, 80%, 70%, 60%, 50%, 40%, 30%, 20%, 10%, and 2%) • 5. 2% to 50% (2%, 10%, 20%, 30%, 40%, and 50%)
# [3] = Solubility of solid state forms in solvents (gravimetric or solvent addition); assay type: physicochemical
# Method: The solubility of certain solid state forms of Compound I was determined in various solvents by either gravimetric solubility or solvent addition.
# About 25 mg of compound was weighed into vials. Approximately 5 vol. (0.125 mL) of solvent was added to the solids and the mixtures stirred at the designated temperature (RT or 50° C.). Solutions were noted and an additional 0.125 mL of solvent was added to the slurries. […] If a thicker slurry was noted, 0.25 mL of solvent was added (total volume 0.5 mL). If a thick slurry was again noted, an additional 0.25 mL of solvent was added (total volume 0.75 mL). After stirring for 2 days, the slurries were centrifuged, the supernatant was collected into preweighed vials, and the solvent evaporated at 50° C. (ambient pressure) without stirring. The vials containing the solid residues were dried in a vacuum oven at 50 C, 10^−2-10^−1 Torr, for 3 h before weighing again to determine the mass of solid that was dissolved in the supernatant (i.e. mg solid/mL solvent).
# About 20 mg of compound was weighed into vials. Solvent was added in aliquots and stirred at the designated temperature until complete dissolution was observed. This measurement gave a solubility range.
# [4] = Stability of crystalline forms at 40° C. and 75% relative humidity (XRPD, HPLC purity); conditions: for Change by XRPD after storage / Degradation by HPLC purity analysis after storage: 40° C., 75% relative humidity
# Method: Approximately 10 mg of the Crystalline Pattern D of Compound I Maleate, 20 mg of the Crystalline Pattern C of Compound I Maleate, and 10 mg of the Crystalline Pattern E of Compound I Mandelate were weighed into open 4 mL vials that were placed into a 20 mL vial containing a saturated NaCl solution. The vial was sealed and kept at 40° C. for 7 days, creating an atmosphere at 75% relative humidity in the system. After 7 days, the materials were sampled and plated for XRPD analysis.
# The stability test was repeated on Patterns C and D of Compound I Maleate for 11 days.
# [5] = Form stability at ambient conditions for one week (XRPD); assay type: physicochemical
# Description: Some of the samples generated in the antisolvent crystallization experiments were mixtures of Pattern B, Pattern C, and Pattern D. These samples were left at ambient conditions for one week, then analyzed again by XRPD.
# Pure Pattern B was generated in the antisolvent crystallization with MIBK and heptane. […] The solids were scraped from the XRPD plate and used for simultaneous TGA/DSC analysis. […] After the solids required for the TGA/DSC analysis were transferred to the pan, the remainder of the solids were re-pressed to the XRPD sample plate and analyzed again.
smiles,measurement,setting,value
"CCOc1ccccc1-c1ccc(N2CCN(C(=O)C3(C(F)(F)F)CCC3)C[C@H]2CC)c(C(=O)N[C@@H]2CN3CCC2CC3)n1 [Pattern D Maleate, N-[(3S)-1-azabicyclo[2.2.2]octan-3-yl]-6-(2-ethoxyphenyl)-3-[(2R)-2-ethyl-4-[1-(trifluoromethyl)-cyclobutanecarbonyl]piperazin-1-yl]pyridine-2-carboxamide maleate]",solubility at 1 h,"[1]; FaSSGF (fasted-state simulated gastric fluid), pH 1.49, fassgf or other biorelevant, thermodynamic from solid, FaSSGF, 1 h",> 2500 µg/mL
same,solubility at 24 h,"[1]; FaSSGF (fasted-state simulated gastric fluid), pH 1.49, fassgf or other biorelevant, thermodynamic from solid, FaSSGF, 24 h",> 2500 µg/mL
same,Sample pH,"[1]; FaSSGF (initial pH 1.49), 1 h",4.66
same,Sample pH,"[1]; FaSSGF (initial pH 1.49), 24 h",5.07
same,solubility at 24 h,"[1]; FaSSIF (fasted-state simulated intestinal fluid), pH 6.35, thermodynamic from solid, FaSSIF, 24 h",1470 µg/mL
same,solubility at 1 h,"[1]; FaSSIF (fasted-state simulated intestinal fluid), thermodynamic from solid, FaSSIF, 1 h",1500 µg/mL
same,Sample pH,"[1]; FaSSIF (initial pH 6.35), 1 h",6.23
same,Sample pH,"[1]; FaSSIF (initial pH 6.35), 24 h",6.92
same,"Solids recovered from the solubility experiment (appearance, XRPD)","[1]; FaSSIF, after 24 h",oily and appeared as amorphous
same,solubility at 1 h,"[1]; FeSSIF (fed-state simulated intestinal fluid), pH 4.83, thermodynamic from solid, FeSSIF, 1 h",> 2500 µg/mL
same,solubility at 24 h,"[1]; FeSSIF (fed-state simulated intestinal fluid), pH 4.83, thermodynamic from solid, FeSSIF, 24 h",> 2500 µg/mL
same,Sample pH,"[1]; FeSSIF (initial pH 4.83), 1 h",1.50
same,Sample pH,"[1]; FeSSIF (initial pH 4.83), 24 h",1.85
same,solubility at 1 h,"[1]; thermodynamic from solid, water, 1 h",> 2500 µg/mL
same,solubility at 24 h,"[1]; thermodynamic from solid, water, 24 h",> 2500 µg/mL
same,Sample pH,"[1]; water, 1 h",~6.35
same,Sample pH,"[1]; water, 24 h",5.60
same,Hygroscopicity (in words),[2]; DVS,slightly hygroscopic
same,Change by XRPD following the DVS analysis,[2]; after DVS from 2 to 95% RH,No change
same,Reversible mass gain (DVS),[2]; from 2 to 95% relative humidity,1.14 wt. %
same,Behaviour at high humidity,[2]; high humidity,stable
same,Solubility (in words),[3]; EtOAc and MIBK at RT and 50° C.,freely soluble and soluble
same,solubility,"[3]; EtOAc, 50 °C, organic solvent or mixture, thermodynamic from solid, EtOAc, 50° C., read-out: Solubility",68000 µg/mL
same,solubility,"[3]; EtOAc, RT, maleate",43^d mg/mL
same,solubility,"[3]; EtOH, RT, maleate",>50^a mg/mL
same,solubility,"[3]; EtOH:MtBE (1:9 vol.), organic solvent or mixture, thermodynamic from solid, EtOH:MtBE (1:9 vol.), RT, read-out: Solubility",4000 µg/mL
same,solubility,"[3]; EtOH:MtBE (3:7 vol.), organic solvent or mixture, thermodynamic from solid, EtOH:MtBE (3:7 vol.), RT, read-out: Solubility",51000 µg/mL
same,Solubility (in words),[3]; IP at RT,soluble
same,Behaviour in solvent (in words),"[3]; IPA, 50° C.",a slurry could not be maintained
same,solubility,"[3]; IPA, organic solvent or mixture, thermodynamic from solid, IPA, RT, read-out: Solubility",68000 µg/mL
same,solubility,"[3]; IPA:MtBE (1:1 vol.), organic solvent or mixture, thermodynamic from solid, IPA:MtBE (1:1 vol.), RT, read-out: Solubility",10000 µg/mL
same,solubility,"[3]; IPA:MtBE (1:9 vol.), organic solvent or mixture, thermodynamic from solid, IPA:MtBE (1:9 vol.), RT, read-out: Solubility",< 3000 µg/mL
same,solubility,"[3]; IPA:MtBE (3:7 vol.), organic solvent or mixture, thermodynamic from solid, IPA:MtBE (3:7 vol.), RT, read-out: Solubility",7000 µg/mL
same,solubility,"[3]; IPA:water (9:1 vol.), organic solvent or mixture, thermodynamic from solid, IPA:water (9:1 vol.), RT, read-out: Solubility",> 333000 µg/mL
same,solubility,"[3]; IPAc, 50 °C, organic solvent or mixture, thermodynamic from solid, IPAc, 50° C., read-out: Solubility",13000 µg/mL
same,solubility,"[3]; IPAc, organic solvent or mixture, thermodynamic from solid, IPAc, RT, read-out: Solubility",7000 µg/mL
same,solubility,"[3]; MEK, RT, maleate",>50^a mg/mL
same,solubility,"[3]; MIBK, 50 °C, organic solvent or mixture, thermodynamic from solid, MIBK, 50° C., read-out: Solubility",65000 µg/mL
same,solubility,"[3]; MIBK, RT, maleate",43^c mg/mL
same,solubility,"[3]; MeOAc, 50 °C, organic solvent or mixture, thermodynamic from solid, MeOAc, 50° C., read-out: Solubility",> 250000 µg/mL
same,solubility,"[3]; MeOAc, organic solvent or mixture, thermodynamic from solid, MeOAc, RT, read-out: Solubility",168000 µg/mL
same,solubility,"[3]; MeOAc:MtBE (1:1 vol.), organic solvent or mixture, thermodynamic from solid, MeOAc:MtBE (1:1 vol.), RT, read-out: Solubility",17000 µg/mL
same,solubility,"[3]; MeOAc:MtBE (1:9 vol.), organic solvent or mixture, thermodynamic from solid, MeOAc:MtBE (1:9 vol.), RT, read-out: Solubility",3000 µg/mL
same,solubility,"[3]; MeOAc:MtBE (3:7 vol.), organic solvent or mixture, thermodynamic from solid, MeOAc:MtBE (3:7 vol.), RT, read-out: Solubility",7000 µg/mL
same,solubility,"[3]; MeOH, RT, maleate",>50^a mg/mL
same,solubility,"[3]; MtBE, 50 °C, organic solvent or mixture, thermodynamic from solid, MtBE, 50° C., read-out: Solubility",< 3000 µg/mL
same,solubility,"[3]; MtBE, RT, maleate",<3^c mg/mL
same,solubility,"[3]; THF, RT, maleate",>50^a mg/mL
same,solubility,"[3]; acetone, RT, maleate",>50^a mg/mL
same,solubility,"[3]; diethyl ether, organic solvent or mixture, thermodynamic from solid, diethyl ether, RT, read-out: Solubility",4000 µg/mL
same,Solubility (in words),"[3]; heptane, diethyl ether, and MtBE",insoluble
same,solubility,"[3]; n-heptane, 50 °C, organic solvent or mixture, thermodynamic from solid, n-heptane, 50° C., read-out: Solubility",< 3000 µg/mL
same,solubility,"[3]; n-heptane, RT, maleate",<3^c mg/mL
same,Change by XRPD after storage,[4]; 7 days,No visible change
same,Degradation by HPLC purity analysis after storage,[4]; 7 days,no degradation
same,Change by XRPD after storage,[4]; 11 days,No visible change
same,Degradation by HPLC purity analysis after storage,[4]; 11 days,no degradation
same,Stability on storage (in words),[4]; over a week at 40° C. and 75% RH,stable
same,Form conversion by XRPD at ambient conditions,[5],no observable conversion
